Experimental data: patent US8691986B2, “Azetidine and piperidine compounds useful as PDE10 inhibitors” (Amgen Inc., priority 2012, dated 2014)

Legend:
human PDE2A1 = human PDE2A1 (Homo sapiens (Human), UniProt O00408); experiment: PDE2A inhibition, PDE IMAP TR-FRET assay; format: biochemical; conditions: FAM-cAMP substrate
Method: Purified human PDE2A1 and PDE10A2 enzymes were obtained from BPS Bioscience (San Diego, Calif.). IMAP™ TR-FRET progressive binding system, FAM-cAMP substrate were from Molecular Devices (Sunnyvale, Calif.).
The PDE IMAP assay was conducted in a 384-well black Greiner polypropylene plate (Sigma, St. Louis, Mo.). PDE inhibitors were serial diluted in 100% DMSO and dispensed into assay plate at […] per well using Echo® Liquid Handling System from LABCYTE. Ten μL of PDE enzyme in IMAP reaction buffer (10 mM Tris-HCl, pH 7.2, 10 mM MgCl2, 0.05% NaN3, and 0.01% Tween-20) was added into the assay wells. The PDE enzyme concentration used was based on each lot of enzyme activity, to ensure enzyme reaction falls in a linear range under assay condition. 1.4 nM of PDE2 or […] PDE10 were used in the assay system. Enzyme was pre-incubated with inhibitors for 60 minutes at room temperature before addition of 10 uL of substrate addition, which results in 100 nM of FAM-cAMP in the reaction. Enzyme reaction was allowed to proceed at room temperature for 90 min, and the reaction is stopped by 55 μl addition of binding reagent according to manufacturer's recommendation. The mixture is further incubated at room temperature for additional 4 hours, and signal was read on an Envision multimode reader (PerkinElmer). Fluorescence signals were measured at 520 nm and 485 nm. The signal ratio at 520/485 nm corresponded to the generation of reaction product of AMP, and it was used in all data analysis. Values from DMSO-treated wells were normalized to POC=100, and no-enzyme wells were normalized to POC=0. IC50 values were determined by using the Genedata Screener V9.0.1. The curve fitting algorithm used for dose response data analysis in Genedata Screener is a custom implementation of a robust curve-fitting algorithm called ROUT (Robust regression with outlier detection) and uses a four-parameter logistical (4 PL) Hill model.

PDE10 = PDE10 (Rattus norvegicus (Rat), UniProt Q9QYJ6); experiment: PDE10 ex vivo receptor occupancy (RO) screening in rat striatum; conditions: oral; for receptor occupancy at 3 mg/kg: 3 mpk, 4 h (footnote C); for receptor occupancy at 10 mg/kg: 10 mpk
Method: The ex vivo screening protocol was approved by Amgen's Institutional Animal Care and Use Committee (IACUC) and in accordance with the National Institutes of Health Guide for Care and Use of Laboratory Animals in facilities accredited by the Association for the Assessment and Accreditation of Laboratory Animal Care (AALAC).
PDE10 inhibitors were dissolved in 2% Hydroxypropylmethylcellulose (HPMC), 1% Tween-80, pH 2.2 with methanesulfonic acid. Male Sprague Dawley® rats weighing 180-225 g (4 per group) were dosed orally with either vehicle or PDE10 inhibitors (3 mg/kg or 10 mg/kg) and then returned to their home cage to allow for absorption of the compounds. After one hour (with 10 mg/kg PDE10 inhibitor) or four hours (with 3 mg/kg or 10 mg/kg PDE10 inhibitor) rats were sacrificed by CO2 inhalation. Blood was obtained by heart puncture and plasma was frozen and stored at −80° C. for exposure analysis. Brains were removed and immediately frozen in chilled methylbutane, and stored at −80° C. until cutting. Three coronal brain slices per brain containing the striatum were cut at […] using a cryostat and placed onto microscope slides, air-dried and stored at −20° C. For radioligand binding experiments, slides were thawed at room temperature and then incubated with 1 nM a tritium labeled tracer compound (insert citation) in binding buffer (150 mM Phosphate-buffered saline containing 2 mM MgCl2 and 100 mM DTT, pH 7.4) for 1 minute at 4° C. To assess non-specific binding, slides containing adjacent brain sections were incubated in the same solution with addition of […] of an unlabelled, structurally unrelated PDE10 antagonist. Afterwards slides were washed 3 times in ice-cold binding buffer, dipped into distilled water to remove buffer salts, and dried under a stream of cold air. Emission of beta particles from the sections was counted for 8 hours in a Beta Imager 2000 (Biospace, Paris, France) and digitized and analyzed using M3 Vision software (Biospace, Paris, France). Total binding radioactivity in the striatum was measured as cpm/mm^2 in hand-drawn regions of interest and averaged across the three sections per brain. Non-specific binding was subtracted to obtain specific binding values and percent occupancy was calculated by setting vehicle specific binding as 0% occupancy.

Sequence of human PDE2A1 (O00408 other isoform, or with tags, fused parts or gaps): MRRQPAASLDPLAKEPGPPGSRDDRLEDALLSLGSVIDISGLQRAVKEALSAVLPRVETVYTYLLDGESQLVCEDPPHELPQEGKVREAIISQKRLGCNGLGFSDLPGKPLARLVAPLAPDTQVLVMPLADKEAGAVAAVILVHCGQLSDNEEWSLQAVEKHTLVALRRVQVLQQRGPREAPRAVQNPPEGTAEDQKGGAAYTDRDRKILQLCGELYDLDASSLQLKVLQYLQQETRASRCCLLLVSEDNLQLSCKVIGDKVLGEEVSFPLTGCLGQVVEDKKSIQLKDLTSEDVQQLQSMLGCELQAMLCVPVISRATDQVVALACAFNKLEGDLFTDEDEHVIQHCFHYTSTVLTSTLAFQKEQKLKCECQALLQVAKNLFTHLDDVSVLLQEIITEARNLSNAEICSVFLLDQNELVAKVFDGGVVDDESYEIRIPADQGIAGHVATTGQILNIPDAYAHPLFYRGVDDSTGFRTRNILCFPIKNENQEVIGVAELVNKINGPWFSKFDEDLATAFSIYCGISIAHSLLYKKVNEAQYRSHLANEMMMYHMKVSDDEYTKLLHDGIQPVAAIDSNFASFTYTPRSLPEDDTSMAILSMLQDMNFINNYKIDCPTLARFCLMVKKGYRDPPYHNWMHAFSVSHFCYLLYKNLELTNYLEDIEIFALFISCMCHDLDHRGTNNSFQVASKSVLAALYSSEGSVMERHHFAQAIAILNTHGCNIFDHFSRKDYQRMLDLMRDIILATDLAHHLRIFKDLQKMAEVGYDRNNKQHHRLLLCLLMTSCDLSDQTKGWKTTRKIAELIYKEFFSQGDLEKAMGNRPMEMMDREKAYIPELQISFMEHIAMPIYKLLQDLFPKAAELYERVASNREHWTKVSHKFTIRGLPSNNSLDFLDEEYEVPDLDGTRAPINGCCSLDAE
Sequence of PDE10 (Q9QYJ6 whole entry): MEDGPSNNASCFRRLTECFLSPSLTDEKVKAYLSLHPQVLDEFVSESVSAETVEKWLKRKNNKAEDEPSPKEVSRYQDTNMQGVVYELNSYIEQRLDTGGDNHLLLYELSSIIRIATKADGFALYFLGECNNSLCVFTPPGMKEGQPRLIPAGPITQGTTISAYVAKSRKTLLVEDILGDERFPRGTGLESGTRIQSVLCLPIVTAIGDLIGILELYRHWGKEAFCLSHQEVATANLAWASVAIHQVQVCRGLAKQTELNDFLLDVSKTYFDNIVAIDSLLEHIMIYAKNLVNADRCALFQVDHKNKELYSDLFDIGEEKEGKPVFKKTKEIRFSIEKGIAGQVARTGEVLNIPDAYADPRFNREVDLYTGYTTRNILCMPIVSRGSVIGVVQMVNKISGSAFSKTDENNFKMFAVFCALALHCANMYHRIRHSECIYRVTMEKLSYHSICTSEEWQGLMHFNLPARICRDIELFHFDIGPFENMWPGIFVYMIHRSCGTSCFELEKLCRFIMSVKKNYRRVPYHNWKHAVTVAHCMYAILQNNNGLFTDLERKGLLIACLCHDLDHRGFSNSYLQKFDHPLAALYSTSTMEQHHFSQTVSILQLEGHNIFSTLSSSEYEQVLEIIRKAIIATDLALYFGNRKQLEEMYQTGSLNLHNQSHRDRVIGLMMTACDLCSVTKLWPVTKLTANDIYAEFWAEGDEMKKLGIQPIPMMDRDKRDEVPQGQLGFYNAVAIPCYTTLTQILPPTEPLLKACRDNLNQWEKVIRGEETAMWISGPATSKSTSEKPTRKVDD

Row | IC50 (human PDE2A1) [µM] | receptor occupancy at 3 mg/kg (PDE10) [%] | receptor occupancy at 10 mg/kg (PDE10; 4 h (footnote B)) [%] | receptor occupancy at 10 mg/kg (PDE10; 1 h (footnote A)) [%] | SMILES
1 | 10 | 58.8 | 79 |  | CNC(=O)c1ccc(-c2nccnc2C2CCN(c3ccc4ccc(Cl)cc4n3)CC2)cc1F [Example 1, 4-(3-(1-(7-Chloroquinolin-2-Yl)Piperidin-4-Yl)Pyrazin-2-Yl)-2-Fluoro-N-Methylbenzamide]
2 | 10 |  | 112 |  | CNC(=O)c1ccc(-c2nccnc2C2CCN(c3ccc4ccc(F)cc4n3)CC2)cc1F [Example 2, 2-Fluoro-4-(3-(1-(7-Fluoroquinolin-2-Yl)Piperidin-4-Yl) Pyrazin-2-Yl)-N-Methylbenzamide]
3 | 10 | 97.4 |  |  | CNC(=O)c1ccc(-c2nccnc2C2CCN(c3ccc4ccccc4n3)CC2)cc1F [Example 3, 2-Fluoro-N-Methyl-4-(3-(1-(Quinolin-2-Yl)Piperidin-4-Yl)Pyrazin-2-Yl)Benzamide]
4 | 10 | 93.3 |  |  | CNC(=O)c1ccc(-c2nccnc2C2CCN(c3ccc4cc(F)ccc4n3)CC2)cc1F [Example 4, 2-Fluoro-4-(3-(1-(6-Fluoroquinolin-2-Yl)Piperidin-4-Yl)Pyrazin-2-Yl)-N-Methylbenzamide]
5 | 10 | 68.3 |  |  | CNC(=O)c1ccc(-c2nccnc2C2CCN(c3ccc4cccc(F)c4n3)CC2)cc1F [Example 5, 2-Fluoro-4-(3-(1-(8-Fluoroquinolin-2-Yl)Piperidin-4-Yl)Pyrazin-2-Yl)-N-Methylbenzamide]
6 | 10 | 83.5 |  | 134 | CNC(=O)c1ccc(-c2nccnc2C2CN(c3ccc4ccc(F)cc4n3)C2)cc1F [Example 8, 2-Fluoro-4-(3-(1-(7-Fluoroquinolin-2-Yl)Azetidin-3-Yl) Pyrazin-2-Yl)-N-Methylbenzamide]
7 | 10 | 77 |  |  | CNC(=O)c1ccc(-c2nccnc2C2CN(c3ccc4cc(F)ccc4n3)C2)cc1F [Example 13, 2-Fluoro-4-(3-(1-(6-Fluoroquinolin-2-Yl)Azetidin-3-Yl) Pyrazin-2-yl)-N-Methylbenzamide]

Continued, molecule first:

Row | SMILES | IC50 (human PDE2A1) [µM] | receptor occupancy at 3 mg/kg (PDE10) [%] | receptor occupancy at 10 mg/kg (PDE10; 4 h (footnote B)) [%] | receptor occupancy at 10 mg/kg (PDE10; 1 h (footnote A)) [%]
8 | CNC(=O)c1ccc(-c2nccnc2C2CN(c3ncc4ccccc4n3)C2)cc1F [Example 6, 2-Fluoro-N-Methyl-4-(3-(1-(Quinazolin-2-Yl)Azetidin-3-Yl)Pyrazin-2-Yl)Benzamide] | 10 | 62.6 |  | 85.4
9 | CNC(=O)c1ccc(-c2nccnc2C2CN(c3ccc4ccccc4n3)C2)cc1F [Example 7, 2-Fluoro-N-Methyl-4-(3-(1-(Quinolin-2-Yl)Azetidin-3-Yl) Pyrazin-2-Yl)Benzamide] | 10 | 110 |  | 93.2
10 | CNC(=O)c1ccc(-c2nccnc2C2CN(c3ncc4ccc(F)cc4n3)C2)cc1F [Example 9, 2-Fluoro-4-(3-(1-(7-Fluoroquinazolin-2-Yl)Azetidin-3-Yl)Pyrazin-2-Yl)-N-Methylbenzamide] | 10 | 61.8 | 87.1 | 123
11 | CNC(=O)c1ccc(-c2nccnc2C2CN(c3ncc4ccc(Cl)cc4n3)C2)cc1F [Example 10, 4-(3-(1-(7-Chloroquinazolin-2-Yl)Azetidin-3-Yl)Pyrazin-2-Yl)-2-Fluoro-N-Methylbenzamide] | 7.38 | 108 |  | 101
12 | CNC(=O)c1ccc(-c2nccnc2C2CN(c3ncc4cc(F)ccc4n3)C2)cc1F [Example 11, 2-Fluoro-4-(3-(1-(6-Fluoroquinazolin-2-Yl)Azetidin-3-Yl)Pyrazin-2-Yl)-N-Methylbenzamide] | 10 | 67.5 | 80 | 
13 | CNC(=O)c1ccc(-c2nccnc2C2CN(c3ncc4cc(F)c(Cl)cc4n3)C2)cc1F [Example 12, 4-(3-(1-(7-Chloro-6-Fluoroquinazolin-2-Yl)Azetidin-3-Yl)Pyrazin-2-Yl)-2-Fluoro-N-Methylbenzamide] | 10 | 91.4 |  | 
14 | CNC(=O)c1ccc(-c2nccnc2C2CN(c3ccc4ncc(Cl)cc4n3)C2)cc1F [Example 14, 4-(3-(1-(7-Chloro-1,5-Naphthyridin-2-Yl)Azetidin-3-Yl)Pyrazin-2-Yl)-2-Fluoro-N-Methylbenzamide] | 10 | 78.5 |  | 
